The values below come from patent publication US10487087B2, “Positive allosteric modulators of the GLP-1 receptor” (Vanderbilt University, priority 2015, dated 2019).

Assay [1] addresses T1, human GLP-1R (Homo sapiens (Human), UniProt P43220). As to the kind of experiment: GLP-1 assay with GLP1 endogenous agonist (calcium mobilization, EC20 GLP-1 peptide 7-36 amide). It is filed as cell-based. Particulars: calcium flux; for Emax at 30 µM: 30 μM compound, EC20 of GLP-1 7-36 amide; for EC50: potentiation of EC20 GLP-1 7-36 amide. From the text:
A. GLP-1 Assay with GLP1 Endogenous Agonist
(§1) To assess the effects of test compounds on GLP-1 or glucagon potency and efficacy, a high-throughput calcium mobilization assay was used essentially as previously described (Morris L C, Days E L, Turney M, Mi D, Lindsley C W, Weaver C D, Niswender K D, A Duplexed High-Throughput Screen to Identify Allosteric Modulators of the Glucagon-Like Peptide 1 and Glucagon Receptors. J. Biomol. Screen. 2014 Feb. 13, 19(6):847-858). Briefly, human GLP-1R or Glucagon Receptor 9-3-H cells over-expressing a promiscuous G-protein (Millipore, Billerica, Mass.) were plated at 15,000 cells/well in black-walled 384-well plates (Greiner Bio-one, Monroe, N.C.) in Dulbecco's Modified Eagles Medium (DMEM) with 10% FCS, 4.0 mM L-glutamine, non-essential amino acids (NEAAs), and 10.0 mM HEPES without antibiotics. After overnight attachment, cells were washed twice with assay buffer (HBSS supplemented with 20 mM HEPES and 1.0 mM probenecid) using an ELx405CW cell washer (Bio-Tek, Winooski, Vt.) and then loaded with the calcium sensitive dye fluo-4 AM (Invitrogen, Grand Island, N.Y.) at a final concentration of 2.0 μM in assay buffer. After a 45-minute incubation at room temperature, the dye was removed by washing, leaving 20 μL of assay buffer. Next, the cell plate was introduced alongside a 384-well compound plate containing 0.1% final DMSO control wells and 11-point concentration response curves of putative GLP-1 PAMs created using a non-pipet based liquid transfer instrument, ECH0555 (Labcyte, Sunnyvale, Calif.). After a 20 μL compound addition to the appropriate wells, kinetic fluorescent measurements were collected for 2 minutes using an FDSS6000 (Hamamatsu, Bridgewater, N.J.) with 488 nm excitation and 480/540 emission filters. After 2 minutes, 10 μL of an EC20 concentration of GLP-1 peptide 7-36 amide (Phoenix Pharmaceuticals, Burlingame, Calif.), Glucagon (Phoenix Pharmaceuticals, Burlingame, Calif.) Exendin-4 (Tocris Bioscience, Bristol, UK), or Liraglutide (Victoza™, Novo-Nordisk, Denmark) was added and fluorescence was monitored for an additional 2 minutes to observe potentiation of the calcium flux signal. […] Recombinant peptides were reconstituted into assay buffer supplemented with 0.1% fatty acid free BSA (Sigma #A6003) and diluted into borosilicate glass tubes to maximize peptide recovery (Goebel-Stengel M, Stengel A, Tache Y, Reeve J R Jr., The importance of using the optimal plasticware and glassware in studies involving peptides. Anal. Biochem. 2011 Jul. 1, 414(1):38-46).
(§2) Data is from a single experiment unless otherwise noted. Data that is an average of two experiments is noted as “n=2” while data that is an average of three or more experiments is presented as the average plus or minus the standard error of the mean.
For orientation: A change in cytosolic calcium serves as a functional read-out for many receptors and channels.

Assay [2] concerns the target T1, human GLP-1R. As to the kind of experiment: GLP-1 assay with EX-4 synthetic agonist (calcium mobilization, EC20 EX-4). The assay is classed as cell-based. The conditions noted are these: calcium flux; for Emax at 30 µM: 30 μM compound, EC20 of EX-4; for EC50: potentiation of EC20 EX-4, read-out: GLP1 EC50 (Ex-4 synthetic agonist).
Description: B. GLP-1 Assay with EX-4 Synthetic Agonist
as §1, with “L-glutamine, 1×” for “L-glutamine,”, “EL×405CW” for “ELx405CW”, “EX-4” for “GLP-1 peptide 7-36 amide”, “Taché” for “Tache”
as §2

T1 sequence (P43220 24-463): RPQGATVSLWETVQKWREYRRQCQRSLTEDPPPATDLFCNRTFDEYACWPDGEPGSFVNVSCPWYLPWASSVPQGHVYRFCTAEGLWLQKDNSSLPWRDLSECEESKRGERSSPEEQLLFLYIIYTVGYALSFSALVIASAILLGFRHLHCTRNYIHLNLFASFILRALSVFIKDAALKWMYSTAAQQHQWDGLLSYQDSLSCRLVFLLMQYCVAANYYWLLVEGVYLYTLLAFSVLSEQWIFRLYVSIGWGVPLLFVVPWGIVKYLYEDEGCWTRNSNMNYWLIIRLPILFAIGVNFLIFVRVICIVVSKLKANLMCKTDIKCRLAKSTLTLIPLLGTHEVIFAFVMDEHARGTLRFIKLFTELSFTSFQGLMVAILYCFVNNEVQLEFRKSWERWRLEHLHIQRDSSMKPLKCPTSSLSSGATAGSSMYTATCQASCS

Turning to `Cc1c2n(c3ccccc13)C(C(=O)NC[C@@H]1CCCN1C(C)C)CN(C1CCCC1)C2=O` (stereo partly drawn) [Compound 3, 2-cyclopentyl-N-(((S)-1-isopropylpyrrolidin-2-yl)methyl)-10-methyl-1-oxo-1,2,3,4-tetrahydropyrazino[1,2-a]indole-4-carboxamide], at human GLP-1R [1], the Emax at 30 µM is 50% and the EC50 amounted to 5.7 µM. Besides, on human GLP-1R [2], the Emax at 30 µM is 55% and the concentration giving a half-maximal response (EC50) is 11 µM.
Consider `Cc1c2ccccc2n2c(C(=O)NC[C@@H]3CCCN3C(C)C)cn([C@H]3CCOC3)c(=O)c12` [Compound 4, N-(((S)-1-isopropylpyrrolidin-2-yl)methyl)-10-methyl-1-oxo-2-((S)-tetrahydrofuran-3-yl)-1,2-dihydropyrazino[1,2-a]indole-4-carboxamide], for which the Emax at 30 µM on human GLP-1R [1] is 52%; on human GLP-1R [2], 50%. The EC50 at human GLP-1R [1] stood at 2.4 µM; at human GLP-1R [2], 2.9 µM.
The like results for `Cc1c2ccccc2n2c(C(=O)NC[C@H]3CCCN3C(C)C)cn([C@H]3CCOC3)c(=O)c12` [Compound 5, N-(((R)-1-isopropylpyrrolidin-2-yl)methyl)-10-methyl-1-oxo-2-((S)-tetrahydrofuran-3-yl)-1,2-dihydropyrazino[1,2-a]indole-4-carboxamide] were, in that order, 56%, 55%, 4.2 µM and 5.9 µM.
Regarding `Cc1c2cc(F)ccc2n2c(C(=O)NC[C@@H]3CCCN3C(C)C)cn(C3CCCC3)c(=O)c12` [Compound 6, (S)-2-cyclopentyl-8-fluoro-N-((1-isopropylpyrrolidin-2-yl)methyl)-10-methyl-1-oxo-1,2-dihydropyrazino[1,2-a]indole-4-carboxamide], on human GLP-1R [1], the Emax at 30 µM turned out to be 60% and the EC50 came to 4.4 µM. Besides, on human GLP-1R [2], the Emax at 30 µM is 54% and the EC50 was 6.1 µM.
As for `Cc1c2cc(F)ccc2n2c(C(=O)NC[C@H]3CCCN3C(C)C)cn(C3CCCC3)c(=O)c12` [Compound 7, (R)-2-cyclopentyl-8-fluoro-N-((1-isopropylpyrrolidin-2-yl)methyl)-10-methyl-1-oxo-1,2-dihydropyrazino[1,2-a]indole-4-carboxamide], the EC50 at human GLP-1R [1] and on human GLP-1R [2] was over 30 µM each time.
For `Cc1c2ccccc2n2c(C(=O)NC[C@@H]3CCCN3C(C)C)cn(-c3ccccc3)c(=O)c12` [Compound 14, (S)-N-((1-isopropylpyrrolidin-2-yl)methyl)-10-methyl-1-oxo-2-phenyl-1,2-dihydropyrazino[1,2-a]indole-4-carboxamide], at human GLP-1R [1], the Emax at 30 µM is 45% and the EC50 was 13 µM.
For the compound `Cc1c2ccccc2n2c(C(=O)NC[C@H]3CCCN3C(C)C)cn(-c3ccccc3)c(=O)c12` [Compound 15, (R)-N-((1-isopropylpyrrolidin-2-yl)methyl)-10-methyl-1-oxo-2-phenyl-1,2-dihydropyrazino[1,2-a]indole-4-carboxamide], on human GLP-1R [1], the concentration for a half-maximal effect (EC50) is over 30 µM.
For the compound `CC(C)N1CCC[C@H]1CNC(=O)c1cn(C2CCCC2)c(=O)c2c(C#N)c3ccccc3n12` [Compound 16, (S)-10-cyano-2-cyclopentyl-N-((1-isopropylpyrrolidin-2-yl)methyl)-1-oxo-1,2-dihydropyrazino[1,2-a]indole-4-carboxamide], at human GLP-1R [1], the Emax at 30 µM amounted to 43% and the EC50 was determined as 1.9 µM.
Take `C=Cc1c2ccccc2n2c(C(=O)NC[C@@H]3CCCN3C(C)C)cn(C3CCCC3)c(=O)c12` [Compound 17, (S)-2-cyclopentyl-N-((1-isopropylpyrrolidin-2-yl)methyl)-1-oxo-10-vinyl-1,2-dihydro-pyrazino[1,2-a]indole-4-carboxamide]: on human GLP-1R [1], the Emax at 30 µM was found to be 37% and the EC50 was 9.6 µM.
In the same order, the values of `Cc1c2ccccc2n2c(C(=O)NC[C@@H]3CCCN3C(C)C)cn(-c3cnn(C)c3)c(=O)c12` [Compound 18, (S)-N-((1-isopropylpyrrolidin-2-yl)methyl)-10-methyl-2-(1-methyl-1H-pyrazol-4-yl)-1-oxo-1,2-dihydropyrazino[1,2-a]indole-4-carboxamide] are 34% and 6.7 µM.
Regarding `Cc1c2ccccc2n2c(C(=O)NC[C@H]3CCCN3C(C)C)cn(-c3cnn(C)c3)c(=O)c12` [Compound 19, (R)-N-((1-isopropylpyrrolidin-2-yl)methyl)-10-methyl-2-(1-methyl-1H-pyrazol-4-yl)-1-oxo-1,2-dihydropyrazino[1,2-a]indole-4-carboxamide], the EC50 on human GLP-1R [1] was over 30 µM.
As for `Cc1c2ccccc2n2c(C(=O)NC[C@@H]3CCCN3C(C)C)cn(-c3cccnc3)c(=O)c12` [Compound 20, (S)-N-((1-isopropylpyrrolidin-2-yl)methyl)-10-methyl-1-oxo-2-(pyridin-3-yl)-1,2-dihydropyrazino[1,2-a]indole-4-carboxamide], at human GLP-1R [1], the Emax at 30 µM was determined as 36% and the EC50 was found to be 5.2 µM.
Take `Cc1c2ccccc2n2c(C(=O)NC[C@H]3CCCN3C(C)C)cn(-c3cccnc3)c(=O)c12` [Compound 21, (R)-N-((1-isopropylpyrrolidin-2-yl)methyl)-10-methyl-1-oxo-2-(pyridin-3-yl)-1,2-dihydropyrazino[1,2-a]indole-4-carboxamide]: at human GLP-1R [1], the EC50 is over 30 µM.
As to `Cc1c2ccccc2n2c(C(=O)NCC3CCN3)cn(C3CCCC3)c(=O)c12` (stereo not drawn) [Compound 22, N-(azetidin-2-ylmethyl)-2-cyclopentyl-10-methyl-1-oxo-1,2-dihydropyrazino[1,2-a]indole-4-carboxamide], at human GLP-1R [1], the EC50 was over 30 µM.
Consider `Cc1c2ccccc2n2c(CO)cn(C3CCCC3)c(=O)c12` [Compound 23, 2-cyclopentyl-4-(hydroxymethyl)-10-methylpyrazino[1,2-a]indol-1(2H)-one], for which the EC50 on human GLP-1R [1] was over 30 µM.
Turning to `Cc1c2ccccc2n2c(C(=O)NCC3CCN3C(C)C)cn(C3CCCC3)c(=O)c12` (stereo not drawn) [Compound 24, 2-cyclopentyl-N-((1-isopropylazetidin-2-yl)methyl)-10-methyl-1-oxo-1,2-dihydropyrazino[1,2-a]indole-4-carboxamide], on human GLP-1R [1], the Emax at 30 µM came to 51% and the EC50 was found to be 12 µM.
`Cc1c2ccccc2n2c(C(=O)O)cn(C3CCCC3)c(=O)c12` [Compound I, 2-Cyclopentyl-10-methyl-1-oxo-1,2-dihydropyrazino[1,2-a]indole-4-carboxylic acid]: on human GLP-1R [1], the EC50 was over 30 µM.

One may read the Emax as the size of the effect at its maximum, as opposed to the concentration needed. For orientation: EC50 means the midpoint of the concentration-response curve.
